Test results as given in ChEMBL document CHEMBL1201862, “PubChem BioAssay data set” (2004).
The source made the active and inactive calls.

Tests used:
[1] = target: Glyceraldehyde-3-phosphate dehydrogenase (Homo sapiens, UniProt P04406)
[2] = target: T1, Alkaline phosphatase, tissue-nonspecific isozyme (Homo sapiens, UniProt P05186); test: potency against alkaline phosphatase TNAP – biochemical, luminescent, dose response, SAR follow-up (AID 1056)
T1 sequence (P05186 whole entry): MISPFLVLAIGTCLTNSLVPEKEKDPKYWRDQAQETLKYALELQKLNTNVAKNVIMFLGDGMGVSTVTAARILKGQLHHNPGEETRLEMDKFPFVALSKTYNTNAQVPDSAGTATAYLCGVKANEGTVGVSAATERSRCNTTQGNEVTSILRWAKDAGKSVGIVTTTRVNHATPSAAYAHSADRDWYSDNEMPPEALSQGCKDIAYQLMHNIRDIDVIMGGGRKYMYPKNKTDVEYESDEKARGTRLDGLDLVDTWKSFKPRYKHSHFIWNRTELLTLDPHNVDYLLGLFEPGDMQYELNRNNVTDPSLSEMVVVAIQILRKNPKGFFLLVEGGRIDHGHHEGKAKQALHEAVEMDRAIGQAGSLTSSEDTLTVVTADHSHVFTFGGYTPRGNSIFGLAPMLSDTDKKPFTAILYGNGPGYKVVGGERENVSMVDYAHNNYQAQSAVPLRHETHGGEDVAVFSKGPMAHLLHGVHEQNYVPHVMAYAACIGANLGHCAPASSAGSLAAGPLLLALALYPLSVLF

[3] = target: T2, Short transient receptor potential channel 4 (Mus musculus, UniProt Q9QUQ5); test: calcium entry via TRPC4 opening agents – cell-based, HEK293 TRPC4/mu-opioid, Fluo-4 calcium, dose response (AID 434937); type: functional
T2 sequence (Q9QUQ5 whole entry): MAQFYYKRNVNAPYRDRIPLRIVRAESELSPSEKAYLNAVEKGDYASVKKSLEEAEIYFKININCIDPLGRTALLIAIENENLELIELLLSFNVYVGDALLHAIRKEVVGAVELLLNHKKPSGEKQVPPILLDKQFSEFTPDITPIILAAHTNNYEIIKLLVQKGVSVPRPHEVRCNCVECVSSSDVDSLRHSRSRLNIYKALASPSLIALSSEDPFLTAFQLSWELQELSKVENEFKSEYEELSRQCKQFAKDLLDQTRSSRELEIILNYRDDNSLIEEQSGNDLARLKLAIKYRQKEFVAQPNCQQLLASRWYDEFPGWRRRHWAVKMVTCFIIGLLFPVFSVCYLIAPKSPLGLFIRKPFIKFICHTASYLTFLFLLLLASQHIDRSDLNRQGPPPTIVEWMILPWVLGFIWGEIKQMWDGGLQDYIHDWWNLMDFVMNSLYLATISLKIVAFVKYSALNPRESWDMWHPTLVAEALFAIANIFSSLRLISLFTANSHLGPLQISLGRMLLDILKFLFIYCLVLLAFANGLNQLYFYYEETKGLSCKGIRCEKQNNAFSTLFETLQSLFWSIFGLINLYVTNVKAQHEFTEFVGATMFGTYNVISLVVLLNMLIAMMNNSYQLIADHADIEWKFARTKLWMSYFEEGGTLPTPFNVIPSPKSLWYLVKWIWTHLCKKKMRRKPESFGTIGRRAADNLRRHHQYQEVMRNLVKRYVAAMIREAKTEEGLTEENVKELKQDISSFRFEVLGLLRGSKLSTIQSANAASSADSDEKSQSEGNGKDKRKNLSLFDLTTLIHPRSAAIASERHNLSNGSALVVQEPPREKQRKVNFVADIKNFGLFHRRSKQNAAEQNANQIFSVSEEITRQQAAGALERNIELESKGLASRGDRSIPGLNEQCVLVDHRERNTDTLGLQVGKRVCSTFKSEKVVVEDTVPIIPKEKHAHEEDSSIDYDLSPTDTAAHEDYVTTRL

[4] = target: T2, Short transient receptor potential channel 4; test: block of DAMGO-driven TRPC4 calcium entry – cell-based, HEK293 TRPC4/mu-opioid, Fluo-4 calcium, dose response (AID 434942); type: functional;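 further: potency of inhibitors blocking the TRPC4 calcium response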
[5] = test system: Vero; test: cells; type: functional, cell-based; conditions: Chlorocebus sabaeus
[6] = test system: Streptococcus sp. 'group A'; test: Streptococcus pyogenes SK(-)GAS viability under kanamycin – luminescence, BacTiterGlo, confirmation, counter-screen for streptokinase expression inhibitor project, dose response (AID 1900); type: functional, organism-based
[7] = microbe, parasite or virus in culture; type: functional; conditions: Mycobacterium tuberculosis
[8] = fluconazole-exposed Candida albicans growth modulators – fluorescence, retest, confirmation (AID 2467); type: functional, cell-based
[9] = NIH-3T3 fibroblast cytotoxicity, dose response, cytotoxicity control, cell-based, fluorescence, Alamar Blue, secondary assay (AID 2327); type: functional;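 further: NIH-3T3 mouse fibroblasts cultured with fluconazole at 8 µg/mL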
[10] = test system: Vero; test: cells; type: functional; conditions: Chlorocebus sabaeus
[11] = test system: Streptococcus; test: GAS UMAA2166 growth inhibition – luminescence, BacTiterGlo, counter-screen for streptokinase expression inhibitor project, dose response (AID 1915); type: functional, organism-based;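 further: potency for reduction of bacterial viability or growth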
[12] = target: Cytochrome P450 3A4 (Homo sapiens, UniProt P08684); conditions: Potency;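 further: confirmatory qHTS run detecting inhibitors and substrates of CYP3A4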
[13] = target: Glucose-6-phosphate 1-dehydrogenase (Homo sapiens, UniProt P11413); test: inhibition of Homo sapiens G6PD, dose series – biochemical, fluorescence, selectivity assay for P. falciparum G6PD inhibitor project, dose response (AID 504792); type: functional
[14] = target: DNA dC->dU-editing enzyme APOBEC-3G (Homo sapiens, UniProt Q9HC16); test: Dose Response confirmation of small molecule APOBEC3G DNA Deaminase Inhibitors via a fluorescence-based single-stranded DNA deaminase assay. [Related pubchem assays (depositor defined):AID493012, AID493028]; type: functional
[15] = THP-1 cell cytotoxicity, dose response, cytotoxicity control for non-replicating M. tuberculosis project (AID 489025); type: functional
[16] = cells; type: functional
[17] = Vero E6 cell cytotoxicity, dose response, cytotoxicity control for non-replicating M. tuberculosis project, secondary assay (AID 492998); type: functional, VeroE6; conditions: Vero C1008
[18] = target: T3, Heat shock factor protein 1 (Mus musculus, UniProt P38532); test: decrease of HSF1-responsive luciferase luminescence – cell-based, NIH3T3, dose retest, confirmation (AID 2382); type: functional;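 further: NIH3T3 fibroblasts with HSF1-driven luciferase reporter stressed by proteasome inhibitor MG132; luminescence from HSF1-driven luciferase expression after 8 hours of MG132 stress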
T3 sequence (P38532 whole entry): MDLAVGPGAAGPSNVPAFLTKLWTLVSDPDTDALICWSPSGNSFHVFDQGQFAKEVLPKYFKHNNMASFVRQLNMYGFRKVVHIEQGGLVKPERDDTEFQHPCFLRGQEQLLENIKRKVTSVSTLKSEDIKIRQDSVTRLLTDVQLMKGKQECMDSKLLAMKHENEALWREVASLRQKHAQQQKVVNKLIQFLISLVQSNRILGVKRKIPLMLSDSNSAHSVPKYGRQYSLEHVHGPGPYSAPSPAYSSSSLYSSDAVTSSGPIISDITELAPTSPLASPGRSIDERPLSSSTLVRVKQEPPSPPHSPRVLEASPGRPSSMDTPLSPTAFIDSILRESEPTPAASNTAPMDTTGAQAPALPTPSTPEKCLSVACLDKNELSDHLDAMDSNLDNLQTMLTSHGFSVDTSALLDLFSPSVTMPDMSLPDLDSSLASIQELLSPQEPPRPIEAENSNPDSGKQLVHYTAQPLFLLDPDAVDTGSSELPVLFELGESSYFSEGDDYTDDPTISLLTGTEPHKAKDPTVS

[19] = target: FAD-linked sulfhydryl oxidase ALR (Homo sapiens, UniProt P55789); test: ALR-catalysed DTT oxidation blockers – biochemical, H2O2 detection, luminescence, cherry-pick, dose response (AID 493248)
[20] = target: T4, Rac GTPase-activating protein 1 (Homo sapiens, UniProt Q9H0H5); test: blockers of MgcRacGAP-driven Rac1 GTP hydrolysis – biochemical, ADP Hunter fluorescence, primary and confirmatory, confirmation (AID 624330); type: functional
T4 sequence (Q9H0H5 whole entry): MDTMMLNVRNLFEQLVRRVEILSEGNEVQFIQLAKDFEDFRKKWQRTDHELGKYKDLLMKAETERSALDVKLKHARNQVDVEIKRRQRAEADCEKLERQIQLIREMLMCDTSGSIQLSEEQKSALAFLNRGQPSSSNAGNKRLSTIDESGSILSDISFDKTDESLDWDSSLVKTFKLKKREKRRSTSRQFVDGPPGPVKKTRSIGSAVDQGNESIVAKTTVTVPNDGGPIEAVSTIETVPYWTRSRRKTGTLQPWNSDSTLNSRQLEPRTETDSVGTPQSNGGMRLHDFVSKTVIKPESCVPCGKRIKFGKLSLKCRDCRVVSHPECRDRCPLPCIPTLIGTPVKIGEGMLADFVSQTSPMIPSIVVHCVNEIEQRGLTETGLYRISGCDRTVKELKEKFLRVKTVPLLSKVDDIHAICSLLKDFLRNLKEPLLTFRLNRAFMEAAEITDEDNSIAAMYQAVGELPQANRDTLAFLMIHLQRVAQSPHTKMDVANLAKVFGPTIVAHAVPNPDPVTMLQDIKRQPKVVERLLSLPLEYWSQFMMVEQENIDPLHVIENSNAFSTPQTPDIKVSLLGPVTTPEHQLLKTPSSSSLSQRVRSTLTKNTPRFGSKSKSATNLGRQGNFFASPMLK

[21] = alpha-synuclein stem-loop luciferase translation blockers – H4 neuroglioma cells, luminescence, confirmation (AID 1988); type: functional, cell-based
[22] = target: Nonstructural protein 1 (Influenza A virus, UniProt Q194T2); type: functional, Influenza A virus (A/California/07/2009(H1N1))
[23] = Luminescence Cell-Based Dose Response HTS to Identify Inhibitors of 5'UTR Stem-Loop Driven Prion Protein mRNA Translation in H4 Neuroglioblastoma Cells. [Related pubchem assays: 1827 (Project Summary), 1813 (Primary HTS)]; type: functional
[24] = target: Large T antigen (Simian virus 40, UniProt P03070); type: functional, Betapolyomavirus macacae;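 further: Confirmatory-stage PubChem screen for compounds that inhibit SV40 T antigen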
[25] = cells; type: functional, cell-based
[26] = cells; type: functional, cell-based; remark: listed apart in the source
[27] = luciferase reporter signal suppression in cells – H4 neuroglioma cells, luminescence, dose response (AID 1990); type: functional, cell-based
[28] = toxicity to human HepG2 hepatoma cells – cell-based, plate reader, dry powder samples, cytotoxicity control, dose response (AID 1159569); type: functional;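 further: inhibitor potency with signal falling toward the positive control level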
[29] = growth inhibition of PfATP4-mutant resistant parasites – NITD609-resistant line, SYBR Green, dry powder, dose response (AID 1159571); type: functional, cell-based;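 further: parasites synchronized at ring stage by sorbitol before testing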
[30] = growth inhibition of yeast DHODH-expressing 3D7 parasites – SYBR Green, dry powder samples, dose response (AID 1159570); type: functional, cell-based;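 further: parasite growth measured after 72 hours of compound exposure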
[31] = toxicity to human hepatoma HepG2 cells – cell-based, cherry-picked samples, cytotoxicity control, dose response (AID 1159577); type: functional
[32] = Dd2 malaria parasite growth inhibition potency – SYBR Green, dry powder samples, dose response (AID 1159566); type: functional, cell-based;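 further: potency for growth inhibition with lower SYBR green DNA signal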
[33] = P. falciparum Dd2 growth inhibitors, dose response, SYBR Green, cherry-picked samples (AID 1159567); type: functional, cell-based

Sequence of Glyceraldehyde-3-phosphate dehydrogenase (P04406 whole entry): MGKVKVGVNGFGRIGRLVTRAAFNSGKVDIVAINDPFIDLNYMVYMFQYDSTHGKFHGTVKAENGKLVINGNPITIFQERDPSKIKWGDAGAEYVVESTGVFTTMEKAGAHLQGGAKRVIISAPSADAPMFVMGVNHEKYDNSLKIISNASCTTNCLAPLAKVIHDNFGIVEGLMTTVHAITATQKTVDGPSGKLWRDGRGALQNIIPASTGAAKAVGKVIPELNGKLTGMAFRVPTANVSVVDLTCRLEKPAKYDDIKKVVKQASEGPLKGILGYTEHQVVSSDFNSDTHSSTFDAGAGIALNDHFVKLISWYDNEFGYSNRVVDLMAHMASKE
Sequence of FAD-linked sulfhydryl oxidase ALR (P55789 whole entry): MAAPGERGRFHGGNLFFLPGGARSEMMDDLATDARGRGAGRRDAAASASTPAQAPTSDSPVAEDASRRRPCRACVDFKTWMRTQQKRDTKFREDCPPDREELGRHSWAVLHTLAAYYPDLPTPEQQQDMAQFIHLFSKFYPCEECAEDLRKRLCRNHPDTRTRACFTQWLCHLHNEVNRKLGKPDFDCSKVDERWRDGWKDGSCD
Sequence of DNA dC->dU-editing enzyme APOBEC-3G (Q9HC16 whole entry): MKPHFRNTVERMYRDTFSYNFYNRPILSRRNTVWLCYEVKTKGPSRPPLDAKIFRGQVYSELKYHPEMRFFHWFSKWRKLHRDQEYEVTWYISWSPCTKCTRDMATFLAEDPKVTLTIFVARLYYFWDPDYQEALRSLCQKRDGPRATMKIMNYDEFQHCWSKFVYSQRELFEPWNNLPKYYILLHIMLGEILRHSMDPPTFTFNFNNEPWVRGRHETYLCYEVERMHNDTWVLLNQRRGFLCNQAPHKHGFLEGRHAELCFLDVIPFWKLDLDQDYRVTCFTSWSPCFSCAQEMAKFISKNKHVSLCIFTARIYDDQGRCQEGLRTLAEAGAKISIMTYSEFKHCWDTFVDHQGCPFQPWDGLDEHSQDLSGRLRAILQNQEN
Sequence of Cytochrome P450 3A4 (P08684 whole entry): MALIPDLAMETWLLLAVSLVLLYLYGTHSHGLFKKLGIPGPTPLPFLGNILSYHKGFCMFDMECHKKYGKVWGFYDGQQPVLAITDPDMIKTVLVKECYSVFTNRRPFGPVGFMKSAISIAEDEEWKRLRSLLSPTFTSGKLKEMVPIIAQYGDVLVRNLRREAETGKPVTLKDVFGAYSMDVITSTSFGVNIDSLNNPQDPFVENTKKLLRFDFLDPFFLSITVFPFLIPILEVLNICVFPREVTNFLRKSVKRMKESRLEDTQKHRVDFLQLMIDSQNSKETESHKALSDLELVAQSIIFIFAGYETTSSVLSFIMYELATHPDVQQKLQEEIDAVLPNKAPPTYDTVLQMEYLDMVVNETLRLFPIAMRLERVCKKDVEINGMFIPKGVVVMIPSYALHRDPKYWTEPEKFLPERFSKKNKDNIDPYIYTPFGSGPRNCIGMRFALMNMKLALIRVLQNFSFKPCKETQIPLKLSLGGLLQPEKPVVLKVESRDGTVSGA
Sequence of Large T antigen (P03070 whole entry): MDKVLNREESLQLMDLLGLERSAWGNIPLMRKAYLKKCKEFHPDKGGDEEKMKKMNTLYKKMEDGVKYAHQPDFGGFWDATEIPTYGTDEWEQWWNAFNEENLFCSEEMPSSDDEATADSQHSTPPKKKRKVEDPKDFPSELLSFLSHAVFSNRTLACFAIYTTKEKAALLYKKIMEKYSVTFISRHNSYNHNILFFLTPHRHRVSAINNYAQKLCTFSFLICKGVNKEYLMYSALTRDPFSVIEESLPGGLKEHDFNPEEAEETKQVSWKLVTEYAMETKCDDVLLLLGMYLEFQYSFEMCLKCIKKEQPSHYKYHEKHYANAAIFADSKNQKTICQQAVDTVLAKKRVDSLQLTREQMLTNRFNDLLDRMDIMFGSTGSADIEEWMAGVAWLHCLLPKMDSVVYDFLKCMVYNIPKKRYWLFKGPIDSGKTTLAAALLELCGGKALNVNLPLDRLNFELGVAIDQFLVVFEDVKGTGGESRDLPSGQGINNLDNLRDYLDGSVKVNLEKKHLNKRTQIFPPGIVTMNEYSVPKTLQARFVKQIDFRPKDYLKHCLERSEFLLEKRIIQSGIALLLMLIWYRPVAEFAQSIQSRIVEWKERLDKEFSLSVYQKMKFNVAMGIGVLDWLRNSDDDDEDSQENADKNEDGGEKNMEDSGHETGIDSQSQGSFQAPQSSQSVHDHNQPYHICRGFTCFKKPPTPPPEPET
Sequence of Glucose-6-phosphate 1-dehydrogenase (P11413 whole entry): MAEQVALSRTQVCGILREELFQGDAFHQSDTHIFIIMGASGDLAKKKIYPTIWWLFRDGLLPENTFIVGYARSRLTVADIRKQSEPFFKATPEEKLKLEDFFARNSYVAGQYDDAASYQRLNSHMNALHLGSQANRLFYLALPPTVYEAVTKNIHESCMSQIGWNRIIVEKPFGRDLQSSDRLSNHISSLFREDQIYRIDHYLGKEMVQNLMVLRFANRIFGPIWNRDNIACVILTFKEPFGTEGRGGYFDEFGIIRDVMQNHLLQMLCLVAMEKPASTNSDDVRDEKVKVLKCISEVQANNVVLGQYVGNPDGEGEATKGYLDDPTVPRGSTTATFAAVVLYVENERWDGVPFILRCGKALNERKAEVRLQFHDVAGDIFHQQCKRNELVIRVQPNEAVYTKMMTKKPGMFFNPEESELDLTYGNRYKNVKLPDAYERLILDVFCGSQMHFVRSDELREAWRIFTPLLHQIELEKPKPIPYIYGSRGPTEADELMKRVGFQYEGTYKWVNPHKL
Sequence of Nonstructural protein 1 (Q194T2 whole entry): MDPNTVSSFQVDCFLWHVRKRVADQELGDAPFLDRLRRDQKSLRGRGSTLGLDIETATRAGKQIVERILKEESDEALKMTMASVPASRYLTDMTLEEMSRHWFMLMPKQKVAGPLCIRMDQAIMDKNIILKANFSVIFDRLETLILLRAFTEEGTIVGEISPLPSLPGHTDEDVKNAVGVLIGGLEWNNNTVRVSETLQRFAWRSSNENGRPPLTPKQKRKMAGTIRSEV

SMILES: O=C(O)c1cc(-c2ccc3c(c2)OCCO3)n[nH]1
- IC50 [1]: > 100 µM (not active)
- IC50 [2]: 49.8 µM (active)

SMILES: O=c1c2ccccc2[nH]c(=S)n1Cc1cccnc1
- EC50 [3]: 2.66 µM (active)
- EC50 [4]: 3.35 µM (active)

SMILES: CC(C)(C)c1ccc(C(=O)NC(=S)NNC(=O)COc2ccccc2)cc1
- IC50 [5]: 23 µM (active)
- EC50 [6]: 0.067 µM (active)
- CC50 [7]: 34.1 µM (active)
- EC50 [8]: 1.58 µM (active)
- EC50 [3]: 5.96 µM (active)
- EC50 [4]: 6.68 µM (active)
- EC50 [9]: > 150 µM (inactive)
- CC50 [10]: > 25 µM (active)
- EC50 [11]: 1.76 µM (active)

SMILES: CC1C(=O)OC2C1CC[C@@]1(C)C=CC(=O)[C@@]3(C)O[C@@]213 (stereo not given in full)
- AC50 [12]: 39.8 µM (inconclusive)

SMILES: COC(=O)[C@H](CCSC)NC(=O)c1cc2c3ccccc3nc-2c[nH]1
- IC50 [13]: > 80 µM (inactive)
- IC50 [14]: 59.6 µM (active)

SMILES: Cn1c(N)c(C(=O)COC(=O)c2cc(C(F)(F)F)nc3ccccc23)c(=O)n(Cc2ccccc2)c1=O
- AC50 [12]: 15.8 µM (inconclusive)

SMILES: COc1ccccc1NC(=O)c1ccc([N+](=O)[O-])o1
- CC50 [15]: 17.5 µM (active)
- IC50 [16]: 9.55 µM (active)
- CC50 [17]: 5.96 µM (active)
- EC50 [18]: > 195 µM (not active)

SMILES: O=S(=O)(N=S1CC=CCN1S(=O)(=O)c1ccccc1)c1ccccc1 (stereo not given)
- IC50 [14]: 2.32 µM (active)
- AC50 [19]: 2.19 µM (active)
- IC50 [20]: 105 µM (active)

SMILES: COc1cccc(Cn2c(Oc3ccccc3)nc3c2c(=O)n(C)c(=O)n3C)c1
- EC50 [4]: 7.5 µM (active)

SMILES: CN(CC(=O)NC1CCCc2ccccc21)C1CCCCC1 (stereo not given)
- EC50 [4]: 13.3 µM (active)

SMILES: Cc1ccccc1Nc1c(-c2ccccn2)nc2ccccn12
- CC50 [15]: 13.7 µM (active)
- EC50 [21]: 10.5 µM (active)
- IC50 [22]: 14.7 µM (active)
- EC50 [23]: 10.4 µM (active)
- IC50 [16]: 1.75 µM (active)
- AC50 [19]: 1.37 µM (active)
- IC50 [24]: < 0.39 µM (active)
- EC50 [25]: 221 µM (active)
- CC50 [17]: 3.7 µM (active)
- EC50 [26]: > 350 µM (not active)
- EC50 [27]: 11 µM (active)

SMILES: c1cnc(-c2cccnc2)nc1
- IC50 [1]: > 100 µM (not active)
- IC50 [2]: > 100 µM (inactive)

SMILES: O=C(N/N=C/c1cc([N+](=O)[O-])ccc1O)C12CC3CC(CC(C3)C1)C2
- CC50 [15]: 21 µM (active)
- IC50 [16]: 16.3 µM (active)
- CC50 [17]: > 20 µM (active)

SMILES: COc1ccc2c3c([nH]c2c1)[C@H](CO)N(Cc1ccc(Cl)cc1)CC31CCN(Cc2nccs2)CC1
- AC50 [28]: 25.8 µM (active)
- AC50 [29]: 1.11 µM (active)
- AC50 [30]: 1.22 µM (active)
- AC50 [31]: > 39 µM (inactive)
- AC50 [32]: 0.781 µM (active)
- AC50 [33]: 1.22 µM (active)

SMILES: CCn1cnc(-c2cccnc2)c1
- IC50 [1]: > 100 µM (not active)
- IC50 [2]: > 100 µM (inactive)
